Several values for one entry are separate records, joined by “and”; a condition that tells them apart may be missing. Equal entries are not always repeated. Activity calls are given as the source filed them. The rule behind the calls is not given here.
Columns and labels:
[1] = target: T1, Purine nucleoside phosphorylase (Bos taurus, UniProt P55859); experiment: Inhibition of calf spleen PNP assessed as inhibition of 7-methylguanosine phosphorolysis after 50 mins by spectrophotometry in presence of 1 mM inorganic phosphate; details: read-out: Ki(app)
T1 sequence (P55859 whole entry): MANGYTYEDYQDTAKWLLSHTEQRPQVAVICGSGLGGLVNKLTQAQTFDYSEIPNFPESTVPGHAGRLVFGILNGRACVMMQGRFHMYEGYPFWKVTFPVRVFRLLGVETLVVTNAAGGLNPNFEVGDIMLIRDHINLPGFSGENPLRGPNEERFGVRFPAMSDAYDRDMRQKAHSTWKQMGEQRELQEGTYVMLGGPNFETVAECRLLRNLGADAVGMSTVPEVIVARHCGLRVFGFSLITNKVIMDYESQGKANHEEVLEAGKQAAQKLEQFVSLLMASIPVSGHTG

[2] = target: T2, Purine nucleoside phosphorylase (Homo sapiens, UniProt P00491); experiment: Inhibition of human erythrocyte PNP assessed as inhibition of 7-methylguanosine phosphorolysis after 50 mins by spectrophotometry in presence of 1 mM inorganic phosphate; details: read-out: Ki(app)
T2 sequence (P00491 whole entry): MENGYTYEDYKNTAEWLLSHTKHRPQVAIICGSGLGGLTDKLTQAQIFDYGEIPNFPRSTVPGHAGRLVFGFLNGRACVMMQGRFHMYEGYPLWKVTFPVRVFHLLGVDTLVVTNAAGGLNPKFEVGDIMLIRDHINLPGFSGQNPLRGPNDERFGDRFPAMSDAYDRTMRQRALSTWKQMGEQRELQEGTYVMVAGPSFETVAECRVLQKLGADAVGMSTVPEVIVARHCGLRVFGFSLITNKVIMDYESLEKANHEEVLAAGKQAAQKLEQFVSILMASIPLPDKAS

[3] = target: T3, Purine nucleoside phosphorylase (Bos taurus) (UniProt P55859); details: Spleen
T3 sequence (whole entry): T1 sequence (P55859 whole entry)

[4] = target: T3, Purine nucleoside phosphorylase (Bos taurus); details: Spleen; remark: listed apart in the source
[5] = target: T1, Purine nucleoside phosphorylase
[6] = Dissociation constant, pKa at 2 mg by spectrophotometry
[7] = target: T2, Purine nucleoside phosphorylase; experiment: Inhibition of human erythrocyte PNP assessed as inhibition of 25 uM 7-methylguanosine phosphorolysis by spectrophotometry in presence of 1 mM inorganic phosphate
[8] = target: T4, Purine nucleoside phosphorylase (Homo sapiens) (UniProt P00491); details: 4.99 to 18.71 uM
T4 sequence (whole entry): T2 sequence (P00491 whole entry)

In the case of `Nc1nc2c(CCCCCCCC(F)(F)P(=O)(O)O)c[nH]c2c(=O)[nH]1`, the Ki [1] is reported as 6.1 nM and 0.94 nM and the Ki [2] is reported as 5.6 nM.
`Nc1nc(O)c2ncn(CCCCC(F)(F)P(=O)(O)O)c2n1` showed a Kieq [3] of 0.72 nM.
`O=c1[nH]cnc2c([C@@H]3N[C@H](CO)[C@@H](O)[C@H]3O)c[nH]c12` [FORODESINE] showed a Kieq [4] of 0.023 nM and a Ki [5] of 41 nM.
`Cn1c(N)nc2cc[nH]c2c1=O` showed a pKa [6] of 5.1.
`CCOP(=O)(OCC)C(F)(F)CCCc1c[nH]c2c(=O)[nH]c(N)nc12` showed an IC50 [7] of 170 nM.
For `Nc1nc2c(CCCCC(F)(F)P(=O)(O)O)c[nH]c2c(=O)[nH]1`, the inhibition [8] was “Active” and the Kieq [3] was 0.085 nM.
In the case of `Cn1c(N)nc2ccn(C)c2c1=O`, the pKa [6] is reported as 10.6.

From ChEMBL document CHEMBL1157648, “Structural-based design and synthesis of novel 9-deazaguanine derivatives having a phosphate mimic as multi-substrate analogue inhibitors for mammalian PNPs” (Bioorg Med Chem, 2010)
